Test results from patent US7169785B2, “Methods and compositions of novel triazine compounds” (Reddy US Therapeutics, Inc., priority 2001, dated 2007).

Columns and labels:
IL-6 [1] = assay: AGE (G-HSA)-induced inflammatory response determined by IL-6 ELISA in HAEC; format: cell-based, human; settings: Homo sapiens; for activity at 10 µM: 24 h, Compds tested @ 10 uM; for IC50: IL6, unit inferred, read-out: IC50 (AGE stimulation of IL6)
Procedure: Human aortic endothelial cells (HAEC, Clonetics) were cultured according to manufacturer in growth medium (Clonetics): basal medium containing human epidermal growth factor, hydrocortisone, vascular endothelial growth factor, heparin binding growth factor-B, long R3-insulin-like growth factor-1, ascorbic acid, gentamicin/amphotericin and 5% FBS. These cell were allowed to reach at least 90% confluency before subjected to experimental treatments. […] Tumor necrosis factor α was from R&D Systems.
All treatments, compound-added and controls were carried out in serum free media containing 0.2% albumin. Media from all conditions were collected and used for IL-6 ELISA.
(§1) IL-6 ELISA was carried out using human IL-6 DuoSet ELISA development kit as described by manufacturer (R&D Systems). Mouse anti-human Il-6 was used as the capture antibody (2 ug/ml) and biotinylated goat anti-human IL-6 (200 ng/ml) was used as the detection antibody. Culture media were incubated with capture antibody (in 96 well) for 2 h at room temperature. Wells were washed three times with wash buffer (0.05% tween-20 in phosphate buffered saline (PBS) pH 7.4) followed by incubation with detection antibody for 2 h at room temperature. Following three washes wells were incubated with Streptavidin-HRP for 20 min. Color development was read at 450 nm in a Microplate reader.

IL-6 [2] = assay: TNF-α-induced IL-6 production determined by IL-6 ELISA in HAEC; format: cell-based, human; settings: Compds tested @ 10 uM, HAEC; for activity at 10 µM: Homo sapiens, 24 h, IL6, read-out: % IL6 production compare to TNF stimulation of IL6 (100%)
Procedure: Human aortic endothelial cells (HAEC, Clonetics) were cultured according to manufacturer in growth medium (Clonetics): basal medium containing human epidermal growth factor, hydrocortisone, vascular endothelial growth factor, heparin binding growth factor-B, long R3-insulin-like growth factor-1, ascorbic acid, gentamicin/amphotericin and 5% FBS. These cell were allowed to reach at least 90% confluency before subjected to experimental treatments. Glycated human serum albumin (G-HSA) was from US Biologicals. Tumor necrosis factor α was from R&D Systems.
[…] All treatments, compound-added and controls were carried out in serum free media containing 0.2% albumin. Media from all conditions were collected and used for IL-6 ELISA.
as §1

[3] = IL6, read-out: % IL6 production compare to AGE stimulation of IL6 (100%)

## CCN1CCCC1CNc1nc(Nc2ccc3ncccc3c2)nc(NC2CCCCCC2)n1 (centres unmarked) [Compound 4, N^2-cycloheptyl-N^4-[(1-ethyl-2-pyrrolidinyl)methyl]-N^6-(6-quinolinyl)-1,3,5-triazine-2,4,6-triamine]
IL-6 [1]; [3]
  activity at 10 µM: 1%

## CCN1CCCC1CNc1nc(Nc2ccc(F)cc2)nc(NC2CCCCCC2)n1 (centres unmarked) [Compound 10, N^2-cycloheptyl-N^4-[(1-ethyl-2-pyrrolidinyl)methyl]-N^6-(4-fluorophenyl)-1,3,5-triazine-2,4,6-triamine]
IL-6 [1]; [3]
  activity at 10 µM: 1%

## CCN1CCCC1CNc1nc(Nc2ccc(C#N)cc2)nc(NC2CCCCCC2)n1 (centres unmarked) [Compound 11, 4-[(4-(cycloheptylamino)-6-{[(1-ethyl-2-pyrrolidinyl)methyl]amino}-1,3,5-triazin-2-yl)-amino]benzonitrile]
IL-6 [1]; [3]
  activity at 10 µM: 1%
IL-6 [1]
  IC50: 8.87 µM

## CCN1CCCC1CNc1nc(Nc2ccc3c(c2)OCCO3)nc(NC2CCCCCC2)n1 (centres unmarked) [Compound 24, N^2-cycloheptyl-N^4-(2,3-dihydro-1,4-benzodioxin-6-yl)-N^6-[(1-ethyl-2-pyrrolidinyl)methyl]-1,3,5-triazine-2,4,6-triamine]
IL-6 [1]; [3]
  activity at 10 µM: 1%

## CCN1CCCC1CNc1nc(Nc2ccc(N(C)C)cc2)nc(NC2CCCCCC2)n1 (centres unmarked) [Compound 25, N^2-cycloheptyl-N^4-[4-(dimethylamino)phenyl]-N^6-[(1-ethyl-2-pyrrolidinyl)methyl]-1,3,5-triazine-2,4,6-triamine]
IL-6 [1]; [3]
  activity at 10 µM: 1%

## CCN1CCCC1CNc1nc(Nc2ccc(N3CCOCC3)cc2)nc(NC2CCCCCC2)n1 (centres unmarked) [Compound 27, N^2-cycloheptyl-N^4-[(1-ethyl-2-pyrrolidinyl)methyl]-N^6-[4-(4-morpholinyl)phenyl]-1,3,5-triazine-2,4,6-triamine]
IL-6 [1]; [3]
  activity at 10 µM: 1%
IL-6 [2]
  activity at 10 µM: 3%

## CCN1CCCC1CNc1nc(Nc2ccc(NC(C)=O)cc2)nc(NC2CCCCCC2)n1 (centres unmarked) [Compound 29, N-{4-[(4-(cycloheptylamino)-6-{[(1-ethyl-2-pyrrolidinyl)methyl]amino}-1,3,5-triazin-2-yl)-amino]phenyl}acetamide]
IL-6 [1]; [3]
  activity at 10 µM: 7%
IL-6 [2]
  activity at 10 µM: 13%

## CCN1CCCC1CNc1nc(Nc2cccc(NC(C)=O)c2)nc(NC2CCCCCC2)n1 (centres unmarked) [Compound 30, N-{3-[(4-(cycloheptylamino)-6-{[(1-ethyl-2-pyrrolidinyl)methyl]amino}-1,3,5-triazin-2-yl)-amino]phenyl}acetamide]
IL-6 [1]; [3]
  activity at 10 µM: 17%
IL-6 [2]
  activity at 10 µM: 9%

## CCOc1ccc(Nc2nc(NCC3CCCN3CC)nc(NC3CCCCCC3)n2)cc1 (centres unmarked) [Compound 32, N^2-cycloheptyl-N^4-(4-ethoxyphenyl)-N^6-[(1-ethyl-2-pyrrolidinyl)methyl]-1,3,5-triazine-2,4,6-triamine]
IL-6 [1]; [3]
  activity at 10 µM: 1%

## CCN1CCCC1CNc1nc(Nc2ccccn2)nc(NC2CCCCCC2)n1 (centres unmarked) [Compound 34, N^2-cycloheptyl-N^4-[(1-ethyl-2-pyrrolidinyl)methyl]-N^6-(2-pyridinyl)-1,3,5-triazine-2,4,6-triamine]
IL-6 [1]; [3]
  activity at 10 µM: 1%
IL-6 [2]
  activity at 10 µM: 3%

## CCN1CCCC1CNc1nc(Nc2scc(C)c2C(N)=O)nc(NC2CCCCCC2)n1 (centres unmarked) [Compound 39, 2-[(4-(cycloheptylamino)-6-{[(1-ethyl-2-pyrrolidinyl)methyl]amino}-1,3,5-triazin-2-yl)-amino]-4-methyl-3-thiophenecarboxamide]
IL-6 [1]; [3]
  activity at 10 µM: 28%

## CCN1CCCC1CNc1nc(NC2CCCCCC2)nc(N(C)c2ccc(Cl)cc2)n1 (centres unmarked) [Compound 40, N^2-(4-chlorophenyl)-N^4-cycloheptyl-N^6-[(1-ethyl-2-pyrrolidinyl)methyl]-N^2-methyl-1,3,5-triazine-2,4,6-triamine]
IL-6 [1]; [3]
  activity at 10 µM: 19%

## CCN1CCCC1CNc1nc(NC2CCCCCC2)nc(N(CCC#N)c2ccccc2)n1 (centres unmarked) [Compound 41, 3-[(4-(cycloheptylamino)-6-{[(1-ethyl-2-pyrrolidinyl)methyl]amino}-1,3,5-triazin-2-yl)-(phenyl)amino]propanenitrile]
IL-6 [1]; [3]
  activity at 10 µM: 18%

## CCN1CCCC1CNc1nc(NC2CCCCCC2)nc(N(C)c2ccc(OC)cc2)n1 (centres unmarked) [Compound 42, N^2-cycloheptyl-N^4-[(1-ethyl-2-pyrrolidinyl)methyl]-N^6-(4-methoxyphenyl)-N^6-methyl-1,3,5-triazine-2,4,6-triamine]
IL-6 [1]; [3]
  activity at 10 µM: 1%
IL-6 [2]
  activity at 10 µM: 1%

## CCN1CCCC1CNc1nc(NC2CCCCCC2)nc(N(C)c2ccc(F)cc2F)n1 (centres unmarked) [Compound 43, N^2-cycloheptyl-N^4-(2,4-difluorophenyl)-N^6-[(1-ethyl-2-pyrrolidinyl)methyl]-N^4-methyl-1,3,5-triazine-2,4,6-triamine]
IL-6 [1]; [3]
  activity at 10 µM: 4%

## CCN1CCCC1CNc1nc(NC2CCCCCC2)nc(N(CC#N)c2ccccc2)n1 (centres unmarked) [Compound 44, [(4-(cycloheptylamino)-6-{[(1-ethyl-2-pyrrolidinyl)methyl]amino}-1,3,5-triazin-2-yl)(phenyl)amino]acetonitrile]
IL-6 [1]; [3]
  activity at 10 µM: 1%
IL-6 [1]
  IC50: 7.1 µM

## CCN1CCCC1CNc1nc(NC2CCCCCC2)nc(N(C)c2cccc(Cl)c2)n1 (centres unmarked) [Compound 45, N^2-(3-chlorophenyl)-N^4-cycloheptyl-N^6-[(1-ethyl-2-pyrrolidinyl)methyl]-N^2-methyl-1,3,5-triazine-2,4,6-triamine]
IL-6 [1]; [3]
  activity at 10 µM: 1%

## CCN1CCCC1CNc1nc(NC2CCCCCC2)nc(N(C)c2ccccc2C(F)(F)F)n1 (centres unmarked) [Compound 46, N^2-cycloheptyl-N^4-[(1-ethyl-2-pyrrolidinyl)methyl]-N^6-methyl-N^6-[2-(trifluoromethyl)phenyl]-1,3,5-triazine-2,4,6-triamine]
IL-6 [1]; [3]
  activity at 10 µM: 3%

## CCN1CCCC1CNc1nc(Nc2ccc(OC)c(F)c2)nc(N2CCN(C)CC2)n1 (centres unmarked) [Compound 62, N^2-[(1-ethyl-2-pyrrolidinyl)methyl]-N^4-(3-fluoro-4-methoxyphenyl)-6-(4-methyl-1-piperazinyl)-1,3,5-triazine-2,4-diamine]
IL-6 [1]; [3]
  activity at 10 µM: 42%

## CCN1CCCC1CNc1nc(NCC(F)(F)F)nc(Nc2ccc(OC)c(F)c2)n1 (centres unmarked) [Compound 67, N^2-[(1-ethyl-2-pyrrolidinyl)methyl]-N^4-(3-fluoro-4-methoxyphenyl)-N^6-(2,2,2-trifluoroethyl)-1,3,5-triazine-2,4,6-triamine]
IL-6 [1]; [3]
  activity at 10 µM: 39%

## CCN1CCCC1CNc1nc(NCCCN2CCCC2=O)nc(Nc2ccc(OC)c(F)c2)n1 (centres unmarked) [Compound 74, 1-[3-({4-{[(1-ethyl-2-pyrrolidinyl)methyl]amino}-6-[(3-fluoro-4-methoxyphenyl)amino]-1,3,5-triazin-2-yl}amino)propyl]-2-pyrrolidinone]
IL-6 [1]; [3]
  activity at 10 µM: 49%

## COc1ccc(Nc2nc(NCCCn3ccnc3)nc(NC3CCCCCC3)n2)cc1F [Compound 100, N^2-cycloheptyl-N^4-(3-fluoro-4-methoxyphenyl)-N^6-[3-(1H-imidazol-1-yl)propyl]-1,3,5-triazine-2,4,6-triamine]
IL-6 [1]; [3]
  activity at 10 µM: 1%

## COc1ccc(Nc2nc(N3CCOCC3)nc(N3CCN(Cc4ccccc4)CC3)n2)cc1 [Compound 173, [4-(4-Benzyl-piperazin-1-yl)-6-morpholin-4-yl-[1,3,5]triazin-2-yl]-(4-methoxy-phenyl)-amine]
IL-6 [2]
  % IL6 production compare to TNF stimulation to IL6 (100%): 47%

## c1ccc2cc(Nc3nc(NC4CCCCCC4)nc(N4CCOCC4)n3)ccc2c1 [Compound 174, N-Cycloheptyl-6-morpholin-4-yl-N′-naphthalen-2-yl-[1,3,5]triazine-2,4-diamine]
IL-6 [2]
  % IL6 production compare to TNF stimulation to IL6 (100%): 34%

## COc1ccc(Nc2nc(NC3CCCCCC3)nc(N3CCOCC3)n2)cc1F [Compound 175, N-Cycloheptyl-N′-(3-fluoro-4-methoxy-phenyl)-6-morpholin-4-yl-[1,3,5]triazine-2,4-diamine]
IL-6 [2]
  % IL6 production compare to TNF stimulation to IL6 (100%): 18%

## c1ccc(Nc2nc(NC3CCCCCC3)nc(N3CCOCC3)n2)cc1 [Compound 176, N-Cycloheptyl-6-morpholin-4-yl-N′-phenyl-[1,3,5]triazine-2,4-diamine]
IL-6 [2]
  % IL6 production compare to TNF stimulation to IL6 (100%): 33%

## COc1ccc(Nc2nc(NC3CCCCCC3)nc(N(C)Cc3ccccc3)n2)cc1 [Compound 178, N-Benzyl-N′-cycloheptyl-N″-(4-methoxy-phenyl)-N-methyl-[1,3,5]triazine-2,4,6-triamine]
IL-6 [2]
  % IL6 production compare to TNF stimulation to IL6 (100%): 19%

## CN1CCC(N(C)c2nc(Nc3ccc4ccccc4c3)nc(NC3CC3)n2)CC1 [Compound 180, N-Cyclopropyl-N′-methyl-N′-(1-methyl-piperidin-4-yl)-N″-naphthalen-2-yl-[1,3,5]triazine-2,4,6-triamine]
IL-6 [1]; read-out: % IL6 production compare to AGE stimulation of IL6 (100%)
  activity at 10 µM: 5%
